Assay results as given in article PMC8767159, “Multiparameter Optimization of Trypanocidal Cruzain Inhibitors With In Vivo Activity and Favorable Pharmacokinetics” (Frontiers in Pharmacology, 2022).

What was measured:
[1] = Fraction unbound by equilibrium dialysis; type: in vitro ADME; settings: pH 7.4
Experimental: The fraction unbound (fu) ([Masimirembwa et al., 2003]) of the test compounds was determined after incubation with different media, namely, plasma, microsomes, and buffer with 10% FCS. Equilibrium dialysis was performed in a 96-well plate (HT-Dialysis, Gales Ferry, CT) in which each well was divided by a semipermeable membrane (12–14 kDa cutoff). The test compounds diluted in either plasma, microsome suspension, or buffer were added to one side of the membrane. Potassium phosphate buffer (50 mM, pH 7.4) was added to the other side of the membrane. A standard curve was used to calculate the compound concentration (fu) on each side of the membrane. Stock solutions of each compound were prepared in 100% DMSO to obtain a final concentration of 1 mM. The following compound concentrations were used: 1, 2, 20, 200, 2,000 and 5,000 nM. To 500 μl of medium, 0.5 μl of the compound stock solution was added, and this was applied to one side of the well. Each compound was evaluated in triplicate. Next, the plate was assembled, sealed, and incubated at 37°C under rotation (150 rpm) for 4 h. After the incubation period, the plates were subjected to LC-MS/MS.

[2] = In vitro metabolic stability in mouse liver microsomes; type: in vitro ADME; settings: mouse, liver microsomes
Experimental: (§1) Isolated mouse (BD Gentest, Bedford, MA) and human liver microsomes (XenoTech, Kansas City, KS) ([Plant, 2004]) were added at a final concentration of 0.25 mg/ml to a solution containing 40 mM dibasic potassium phosphate and 10 mM monobasic potassium phosphate. Stock solutions of compounds at 5 mM were prepared in 100% DMSO. A 50:50 quenching solution of acetonitrile (ACN) and methanol (MeOH) was prepared. An NADPH solution was prepared at 10 mM. The preparations containing the microsomes were added to each well of the incubation plate (450 µl), which was then heated to 37°C for 10 min. The compounds were added to the respective wells of the test plate (2 µl). Then, 300 µl of the microsome preparation was added to each well of the test plate. The test plate was heated under gentle rotation for 5 min at 37°C. Next, 90 µl of the mixture contained in the test plate was added to the incubation plate, making a final volume of 540 µl. Samples were collected at the following incubation times: 0, 5, 10, 15, 20, and 30 min. To the 0 min sample plate, quenching solution (180 µl), NADPH (6 µl), and the incubation plate mixture (54 µl) were added to each well. The sample plate was then sealed, homogenized, and stored at 4°C. Then, 54 µl of the NADPH solution was added to the incubation plate, which was homogenized. Before the collection of each sample at the established times, 45 µl of the quenching solution was added to each well of the corresponding sample plates. After reaching the incubation times, 60 µl of the mixture contained in the incubation plate was added to the corresponding sample plates. The sample plates were then sealed and stored at 4°C. After the collection of the last sample (30 min), all sample plates were centrifuged at 3,800 rpm for 30 min. The supernatant from each well was collected and transferred to clean plates for mass spectrometry. Five to 10 µl of each sample was injected into an AB Sciex Triple Quad 5500 LC-MS/MS instrument.
(§2) For the biotransformation experiments and analysis of metabolites in microsomes, an Ultra-High-Pressure Liquid Chromatography instrument (UHPLC, Thermo Accela, Waltham, MA) ([Spaggiari et al., 2014]) connected to an automatic sample injector and a 1250 series pump was used. The UHPLC system was connected to a Thermo Fisher (Waltham, MA) LTQ Orbitrap mass spectrometer. For all other analyses, an AB Sciex Triple Quad 5500 coupled to a UHPLC equipped with a UV 1290 diode detector (Agilent Technologies, Santa Clara, CA) and a CTC PAL self-collecting system (LEAP Technologies, Carrboro, NC) was used. Q1 MS positive ion mode (300–500 Da) was used to detect the ions of the parent compounds. The UV detector was operated in spectral mode (250–280 nm). A Hypersil Gold C18 (2.1 mm × 100 mm, 1.9 µm, Thermo Fisher) HPLC column was used. The mobile phases were solvent A (0.1% formic acid in water) and solvent B (0.1% formic acid in ACN). The flow was adjusted to 0.55 ml/min, and the injection volume was adjusted to […]. The gradient started with 1% solvent B for 0.4 min, reached 40% (solvent B) in 2.3 min and 95% (solvent B) in 0.67 min, was maintained for 0.5 min, and returned to the initial condition of 1%. This condition was maintained for 1 min before injection of the next sample. The peak area ratio (peak area of the test compounds/peak area of the control compounds) was converted to the percentage of remaining compound, with the 0 min time point ratio set to 100%. T½ and CLint were calculated from the percentage of remaining compound versus the incubation time. From the resulting function, the slope (k) was determined. The equations T1/2 (min) = ln(2)/k and CLint in vitro (μL/min/mg) = k*1000/0.25 were used to determine T½ and CLint.

[3] = In vitro metabolic stability in human liver microsomes; type: in vitro ADME; settings: for CLint scaled at 5 µM: human, liver microsomes
Experimental: as §1, §2

[4] = Experimental distribution coefficient (eLogD) by LC retention time; type: physicochemical; settings: for chromatographic logD: C18 column (LC retention time)
Experimental: For the eLogD assays ([Waring, 2010]), each compound (5 μl) from a 5 mM stock solution was diluted in 245 μl of a solution containing buffers A (5% MeOH, 10 mM ammonium acetate, pH 7.4) and B (100% MeOH, pH 7.4) (50:50). Nine control compounds with known eLogD and column retention times (acyclovir, atenolol, antipyrine, fluconazole, metoprolol, carbamazepine, ketoconazole, tolnaftate, and amiodarone; eLogD values ranging from −1.86 to 6.1) were subjected to LC-MS/MS in triplicate before and after the analysis of the test compounds. Retention times were recorded for each control and test compound in a C18 column. The retention time of each control compound was plotted against the respective eLogD values described in the literature ([Lombardo et al., 2002]; [Lombardo et al., 2004]; [Alelyunas et al., 2010]). The resulting linear equation (y = mx + b) was used to calculate the eLogD values of the test compounds, in which x is the retention time in minutes and y is the eLogD value.

[5] = Table S5, CLint/fu, read-out: CLint_u (L/h/kg) Mouse (converted)
[6] = Table S5, read-out: CLint (L/h/kg) Mouse (converted)
[7] = Table S5, CLint/fu, read-out: CLint_u (L/h/kg) Human (converted)
[8] = Table S5, read-out: CLint (L/h/kg) Human (converted)
[9] = Table 5, fraction unbound used to correct CLint
[10] = Table 6, fraction unbound used to correct plasma clearance
[11] = Table 5, CLint/fu, read-out: CLint_u (L/h/kg) mouse (converted)
[12] = Table 5, read-out: CLint (L/h/kg) mouse (converted)
[13] = Table 5, CLint/fu, read-out: CLint_u (L/h/kg) human (converted)
[14] = Table 5, read-out: CLint (L/h/kg) human (converted)
[15] = Table S6, fraction unbound used to correct plasma clearance

Compound | fraction unbound at 4 h, 1 µM ([1]; Table S5, fraction unbound) | CLint scaled at 5 µM [2, 5] [L/h/kg] | CLint scaled at 5 µM [2, 6] [L/h/kg] | CLint scaled at 5 µM [3, 7] [L/h/kg] | CLint scaled at 5 µM [3, 8] [L/h/kg] | chromatographic logD ([4]; pH 7.4, Table 3, pH 7.4) | eLogD ([4]; Table S5) | fraction unbound at 4 h, 1 µM [1, 9] | fraction unbound at 4 h, 1 µM [1, 10] | CLint scaled at 5 µM [2, 11] [L/h/kg] | CLint scaled at 5 µM [2, 12] [L/h/kg] | CLint scaled at 5 µM [3, 13] [L/h/kg] | CLint scaled at 5 µM [3, 14] [L/h/kg] | chromatographic logD ([4]; pH 7.4, Table 5) | chromatographic logD ([4]; pH 7.4, Table S5) | CLint_u (L/h/kg) Human ([3]; Table S5, CLint/fu) [L/h/kg] | fraction unbound at 4 h, 1 µM [1, 15] | eLogD ([4]; Table 3, pH 7.4)
O=C(COc1ccccc1)NCCc1nc2ccccc2n1Cc1ccccc1 [Compound 26] | 0.61 | 1010 | 620 | 196 | 120 | 4.06 | 4.06 |  |  |  |  |  |  |  |  |  |  | 
O=C(COc1ccc(Br)cc1)NCCc1nc2ccccc2[nH]1 [Compound 33] |  |  |  |  |  |  |  | 0.8 | 0.16 | 193 | 161 | 12.5 | 10.4 | 2.8 |  |  |  | 
C=CCCn1c(CCNC(=O)COc2ccccc2)nc2ccccc21 [Compound 27] | 0.86 | 756 | 650 | 70.2 | 60.4 | 3.75 | 3.75 |  |  |  |  |  |  |  |  |  |  | 
COCCn1c(CCNC(=O)COc2ccccc2)nc2ccccc21 [Compound 29] | 1 | 235 | 235 | 23 | 23 |  |  |  |  |  |  |  |  |  | 3.13 |  |  | 
O=C(COc1ccccc1Br)NCCc1nc2ccccc2n1CCOc1ccccc1Br [Compound 23] | 0.04 |  | 300 | 3370 | 136 |  |  |  |  |  |  |  |  |  | 4.69 |  |  | 
O=C(COc1cccc(N2C(=O)CCC2=O)c1)NCCc1nc2ccccc2[nH]1 [Compound 6] | 1 | 217 | 217 | 3.54 | 3.54 |  |  |  |  |  |  |  |  |  | 1.8 | 3.54 |  | 
N#Cc1ccccc1OCC(=O)NCCc1nc2ccccc2[nH]1 [Compound 31] |  |  |  |  |  |  |  | 0.9 | 0.15 | 87.9 | 74.6 | 6.6 | 5.6 | 2.6 |  |  |  | 
O=C(COc1ccc(NC(=O)CCCO)cc1)NCCc1nc2ccccc2[nH]1 [Compound 5] | 0.96 | 4.51 | 4.43 | 1.53 | 1.5 |  |  |  |  |  |  |  |  |  | 1.83 |  |  | 
CC(=O)Nc1cccc(OCC(=O)NCCc2nc3ccccc3[nH]2)c1 [Compound 3] | 1 | 10.6 | 10.6 | 6.9 | 6.9 | 2.26 | 2.26 |  |  |  |  |  |  |  |  | 6.90 | 0.16 | 
COc1ccc2cc(OCC(=O)NCCc3nc4ccccc4[nH]3)ccc2c1 [Compound 12] |  | 1610 | 177 | 233 | 25.6 | 3.89 | 3.89 |  |  |  |  |  |  |  |  |  |  | 
C=CCCn1c(CCNC(=O)COc2ccccc2Cl)nc2ccccc21 [Compound 38] |  |  |  |  |  |  |  | 0.5 | 0.01 | 2030 | 934 | 501 | 230 | 4.1 |  |  |  | 
O=C(COc1cccc([N+](=O)[O-])c1)NCCc1nc2ccccc2[nH]1 [Compound 8] | 1 | 67.5 | 67.5 | 6.58 | 6.58 | 2.98 | 2.98 |  |  |  |  |  |  |  |  |  | 0.14 | 
O=C(COc1ccc2ccc(O)cc2c1)NCCc1nc2ccccc2[nH]1 [Compound 11] | 0.67 | 68.5 | 45.7 | 14.2 | 9.48 |  | 3.37 |  |  |  |  |  |  |  |  |  | 0.03 | 2.26
